Legend:
[1] = Tumor accumulation property (amount of dye in tumor) in cancer-bearing mouse; format: in vivo; settings: mouse, 24 hours after administration
From the text: (§1) The amount of the dye in a tumor and the amount of the dye in blood with respect to each mouse in the tumor-imaging experiment performed in Example 4 were quantitatively determined to thereby evaluate the tumor accumulation property and the residual rate in blood of each compound.
(§2) The tumor accumulation property was expressed as the rate of dye transfer (% ID/g) to a tumor relative to the amount of the dye to be administered per gram of the tumor. First, the mouse was euthanized by a carbon dioxide gas after 24 hours of administration, and thereafter the tumor was surgically resected. The tumor was transferred to a plastic tube, an aqueous 1% Triton-X100 solution was added at 1.25 times the weight of the tumor, and the tumor was crushed using a plastic pestle. Next, DMSO was added at 20.25 times the weight of the tumor tissue. The fluorescence intensity of the solution of the tumor crushed, treated as described above, was measured in the plastic tube using IVIS (registered trademark) Imaging System 200 Series (XENOGEN) to thereby measure the amount of the dye in the tumor.
(§3) The tumor/blood ratio was calculated by the above measurements. The ratio corresponds to the ratio of the tumor accumulation property to the residual rate in blood, and a higher ratio means a higher tumor-imaging ability.

[2] = system: colon 26 mouse colon cancer cells (subcutaneous tumor); test: as above; format: in vivo; settings: 24 hours after administration; for Tumor/blood ratio: tumor accumulation / residual rate in blood
From the text: as §1, §2, §3

[3] = Residual rate in blood (amount of dye in blood) in cancer-bearing mouse; format: in vivo; settings: 24 hours after administration, tail vein blood
Description: as §1
The residual rate in blood was expressed as the rate of dye transfer (% ID/g) to blood relative to the amount of the dye to be administered per gram of blood (1 mL when the specific gravity was assumed to be 1). A blood sample was taken from the tail vein of the mouse after 24 hours of administration, and the blood sample, 1% Triton (registered trademark) X-100 and DMSO were mixed in the plastic tube in a ratio of 2:9:9. The fluorescence intensity of the blood solution treated as described above was measured in the plastic tube using IVIS (registered trademark) Imaging System 200 Series (manufactured by XENOGEN) to thereby measure the amount of the dye in blood.

[4] = system: colon 26 mouse colon cancer cells (subcutaneous tumor); test: Evaluation of tumor-imaging contrast by fluorescence imaging in cancer-bearing mouse; format: in vivo; settings: for fluorescent signal from the tumor site in fluorescence image: 24 hours after administration, FIGURE; for Imaging contrast (fluorescence intensity of tumor site / normal site): 24 hours after tail vein administration, 10 nmol dye per mouse (Alexa Fluor 680-TF (2.0): 31 nmol)
From the text: In the fluorescence imaging experiment, a female outbred BALB/c Slc-nu/nu mouse (6-week-old at the time of purchase) (Japan SLC, Inc.) was used. For one week before the mouse was allowed to bear a cancer, normal diet and bed were used to habituate the mouse to an environment where the diet and drinking water were available ad libitum. Before about one week of the imaging experiment, 1×10^6 colon 26 mouse colon cancer cells (RIKEN) were subcutaneously injected into the femur area of the mouse to thereby prepare a cancer-bearing model mouse.
In order to evaluate the tumor-imaging contrast, the fluorescence intensity of a tumor site (measured area: 0.5×0.5 cm) and the fluorescence intensity (selected as a normal site, measured area: 0.5×0.5 cm) of the base of a leg were quantified from the fluorescence imaging data illustrated in FIGURE. The ratio of the intensities, namely, the value obtained by dividing the value of the fluorescence intensity of a tumor site by the value of the fluorescence intensity of a normal site, was expressed by a numeral value as an imaging contrast. […] A larger imaging contrast of the compound of the present invention than the imaging contrast of Alexa Fluor 680-TF (2.0) is considered to be due to the difference in tumor accumulation property, as described later. The number of the dye(s) labeled at which the highest imaging contrast was achieved was 4.8. On the other hand, when the number of the dye(s) labeled exceeded 8, a tendency of the imaging contrast to be reduced was observed.

[5] = in vivo; cited from earlier work

Compound	tissue uptake at 24 h ([1]; tumor, read-out: Rate of tumor accumulation) [%ID/g]	Kp at 24 h ([1]; tumor accumulation / residual rate in blood, read-out: Tumor/blood ratio)	Rate of tumor accumulation [2]	tissue uptake at 24 h ([3]; mouse, whole blood) [%ID/g]	fluorescent signal from the tumor site in fluorescence image [4]	Imaging contrast (fluorescence intensity of tumor site / normal site) [4]	half-life in blood [5]	Tumor/blood ratio [2]	Residual rate in blood [3] [% ID/g]
CC1(C)C(/C=C/C=C/C=C/C=C2/N(CCCCS(=O)(=O)[O-])c3ccc4ccccc4c3C2(C)C)=[N+](CCCCS(=O)(=O)[O-])c2ccc3ccccc3c21.[Na+] [ICG, indocyanine green, reference compound]	0	0.1	zero	0.1	no fluorescent signal was observed	1.2	about several minutes	–	–
Alexa Fluor 680-TF (2.0): Transferrin From Human Serum, Alexa Fluor 680 Conjugate, Life Technologies, Product No. T35357, number of dye(s) labeled 2.0 [reference compound]	–	–	0.6 % ID/g	–	–	1.2	–	0.2	2.8
iTF (2.0): Human transferrin covalently bound to ICG-Sulfo-OSu near-infrared dye; number of dye(s) labeled 2.0	–	–	–	–	the fluorescent signal from the tumor site was observed	3.3	–	0.7	2.8
iTF (4.8): Human transferrin covalently bound to ICG-Sulfo-OSu near-infrared dye; number of dye(s) labeled 4.8	–	–	–	–	the fluorescent signal from the tumor site was observed	4.1	–	3.3	2.1
iTF (7.0): Human transferrin covalently bound to ICG-Sulfo-OSu near-infrared dye; number of dye(s) labeled 7.0	–	–	–	–	the fluorescent signal from the tumor site was observed	3.4	–	–	1.8
iTF (8.3): Human transferrin covalently bound to ICG-Sulfo-OSu near-infrared dye; number of dye(s) labeled 8.3	–	–	–	–	the fluorescent signal from the tumor site was observed	3.3	–	2.9	0.7
iTF (8.4): Human transferrin covalently bound to ICG-Sulfo-OSu near-infrared dye; number of dye(s) labeled 8.4	–	–	0.8 % ID/g	–	the fluorescent signal from the tumor site was observed	2.3	–	1.9	0.4
